Data as given in patent US4681884A, “Diazine-ethenylphenyl oxamic acids and esters and salts thereof” (Boehringer Ingelheim Pharmaceuticals, Inc., priority 1985, dated 1987).
Structures can show the parent of a compound that is named as a salt.

System: Passive Cutaneous Anaphylaxis
Assay: Passive Cutaneous Anaphylaxis (PCA) Assay, in vivo anti-allergic activity
Parameters: species or system rat
Details: 10 mg/kg, p.o.; oral administration 30 minutes before ovalbumin challenge; blued area vs control
Experimental: Passive Cutaneous Anaphylaxis (PCA) Assay
Representative compounds of the present invention were tested comparatively with cromoglycate to determine in vivo anti-allergic activity. The anti-allergic properties were ascertained in rats by the Passive Cutaneous Anaphylaxis test (PCA) essentially as described by Goose and Blair, Immunology, 16: 749-760 (1969).
Rat serum was diluted so that skin reactions with diameters between 10 and 15 mm in unsensitized rats were produced. The PCA test was performed in duplicate by injecting 0.1 ml of this antiserum dilution on each side of the shaved back of rats. Rats so treated were injected intravenously (i.v.) twenty-four hours later with 0.02 mg ovalbumin in 0.5 ml of 1% Evans Blue solution within five minutes after intravenous administration or 30 minutes after oral administration of the test compounds. Thirty minutes after the ovalbumin challenge the rats were killed by CO2 -asphyxiation, and the skin was reflected. The diameters, in millimeters, of the blued areas were measured and the mean diameter was determined. The circular area was calculated, and the mean area in square millimeters of the control group was considered as 100%. The results of the compound test groups were expressed as a percentage change from these control values. From dose response curves the dose reducing the size of the blued area by 50% (ED50) was estimated.

Row | Compound | % Inhibition
1 | CCOC(=O)C(=O)Nc1cc(C=Cc2ccc(Cl)nn2)cc(NC(=O)C(=O)OCC)c1Cl [Example 37, Diethyl 2-(6-chloropyridazin-3-yl)ethenyl (4-chlorophenyl)-3,5dioxamate] | 54%

Same assay, conditions: 10 mg/kg, p.o.; repeat test

Row | Compound | % Inhibition (repeat)
2 | O=C(O)C(=O)Nc1cccc(C=Cc2ccnc(NC(=O)C(=O)O)n2)c1 [Example 29, 2-(2-Carboxycarbonylamino-pyrimidin-4-yl)ethenyl-phenyl-3 oxamic acid tetra-sodium salt di-hydrate] | 2%

Same assay, conditions: Rattus norvegicus, 0.5 h; 3 mg/kg, i.v.; ovalbumin challenge within five minutes after intravenous administration

Row | Compound | inhibition in vivo at 3 mg/kg
3 | O=C(O)C(=O)Nc1ccc(C=Cc2ccncn2)cc1 [Example 2, 2-(4-Pyrimidinyl)ethenylphenyl-4 oxamic acid ethanolamine salt] | 63%

Same assay, conditions: Rattus norvegicus, 0.5 h; 10 mg/kg, p.o.; oral administration 30 minutes before ovalbumin challenge; blued area vs control

Row | Compound | inhibition in vivo at 10 mg/kg
4 | CCOCCOC(=O)C(=O)Nc1ccc(C=Cc2cc(N)nc(C)n2)cc1 [Example 33, Ethoxyethyl 2-(2-methyl-6-aminopyrimidin-4-yl)-ethenylphenyl-4 oxamate hemihydrate] | 52%
5 | CCc1nccnc1C=Cc1ccc(NC(=O)C(=O)O)cc1 [Example 31, 2-(3-Ethylpyrazin-2-yl)ethenyl-phenyl-4 oxamic acid ethanolamine salt] | 15%
6 | CCOC(=O)C(=O)Nc1cccc(C=Cc2ccnc(NC(C)=O)n2)c1 [Example 16, Ethyl 2-(2-acetamidopyrimidin-4-yl)ethenylphenyl-3 oxamate] | 42%
7 | CCOC(=O)C(=O)Nc1cccc(C=Cc2cc(NC(=O)C(=O)OCC)nc(C)n2)c1 [Example 26, Ethyl 2-(2-methyl-6-ethoxyoxalyl-aminopyrimidin-4-yl)-ethenylphenyl-3 oxamate hemihydrate] | 64%
8 | CCOC(=O)C(=O)Nc1ccc(C=Cc2nccnc2CC)cc1 [Example 30, Ethyl 2-(3-ethylpyrazin-2-yl)ethenylphenyl-4 oxamate] | 6%
9 | CCOC(=O)C(=O)Nc1cccc(C=Cc2ccnc(NC(=O)C(=O)OCC)n2)c1 [Example 28, Ethyl 2-(2-ethoxyoxalylamino-pyrimidin-4-yl)ethenyl-phenyl-3 oxamate] | 5%
10 | O=C(O)C(=O)Nc1cccc(C=Cc2ccnc(NC(=O)C(=O)O)n2)c1 [Example 29, 2-(2-Carboxycarbonylamino-pyrimidin-4-yl)ethenyl-phenyl-3 oxamic acid tetra-sodium salt di-hydrate] | 67%
11 | Cc1nc(C=Cc2cccc(NC(=O)C(=O)O)c2)cc(NC(=O)C(=O)O)n1 [Example 27, 2-(2-Methyl-6-carboxycarbonyl-aminopyrimidin-4-yl)-ethenylphenyl-3 oxamic acid di-tromethane salt] | 0%
12 | CCOC(=O)C(=O)Nc1ccccc1C=Cc1ccncn1 [Example 6, Ethyl 2-(4-pyrimidinyl)ethenylphenyl-2 oxamate] | 20%
13 | CC(=O)Nc1nccc(C=Cc2cccc(NC(=O)C(=O)O)c2)n1 [Example 17, 2-(2-Acetamidopyrimidin-4-yl)ethenylphenyl-3 oxamic acid tromethane salt] | 37%
14 | CCOC(=O)C(=O)Nc1cc(C=Cc2ccncn2)ccc1OCCN(C)C [Example 11, Ethyl 2-(4-pyrimidinyl)ethenyl-4-N,N--dimethylaminoethoxyphenyl-3 oxamate] | 9%
15 | CCOCCOC(=O)C(=O)Nc1ccc(C=Cc2cnccn2)cc1 [Example 32, Ethoxyethyl 2-(2-pyrazinyl)ethenylphenyl-4 oxamate] | 46%
16 | O=C(O)C(=O)Nc1ccc(C=Cc2cccnn2)cc1 [Example 19, 2-(3-Pyridazinyl)ethenylphenyl-4 oxamic acid ethanolamine salt] | 0%

Same assay, conditions: Rattus norvegicus, iv; ovalbumin challenge within five minutes; estimated from dose response curves; read-out: ED50 (dose reducing the size of the blued area by 50%)

Row | Compound | ED50
17 | O=C(O)C(=O)Nc1ccc(C=Cc2cnccn2)c(NC(=O)C(=O)O)c1 [Example 35, 2-(2-Pyrazinyl)ethenylphenyl-2,4 dioxamic acid di-ethanolamine salt] | 0.53 mg/kg
18 | O=C(O)C(=O)Nc1ccc(C=Cc2ccncn2)c(NC(=O)C(=O)O)c1 [Example 36, 2-(4-Pyrimidinyl)ethenylphenyl-2,4 dioxamic acid di-ethanolamine salt] | 0.05 mg/kg
19 | Cc1nc(C=Cc2cccc(NC(=O)C(=O)O)c2)cc(NC(=O)C(=O)O)n1 [Example 27, 2-(2-Methyl-6-carboxycarbonyl-aminopyrimidin-4-yl)-ethenylphenyl-3 oxamic acid di-tromethane salt] | 0.03 mg/kg

Same assay, conditions: Rattus norvegicus, po; 30 minutes before ovalbumin challenge; estimated from dose response curves; read-out: ED50 (dose reducing the size of the blued area by 50%)

Row | Compound | ED50
20 | CCOC(=O)C(=O)Nc1cccc(C=Cc2ccncn2)c1 [Example 4, Ethyl 2-(4-pyrimidinyl)ethenylphenyl-3 oxamate] | 2.8 mg/kg
21 | O=C(O)C(=O)Nc1ccccc1C=Cc1ccncn1 [Example 7, 2-(4-Pyrimidinyl)ethenylphenyl-2 oxamic acid ethanolamine salt] | 8 mg/kg
22 | O=C(O)C(=O)Nc1cccc(C=Cc2cnccn2)c1 [Example 23, 2-(2-Pyrazinyl)ethenylphenyl-3 oxamic acid ethanolamine salt] | < 1 mg/kg
23 | O=C(O)C(=O)Nc1ccc(C=Cc2cnccn2)cc1 [Example 21, 2-(2-Pyrazinyl)ethenylphenyl-4 oxamic acid sodium salt] | 10 mg/kg
24 | CCOC(=O)C(=O)Nc1ccc(C=Cc2cc(OCC)nc(OCC)n2)cc1 [Example 13, Ethyl 2-(2,6-diethoxypyrimidin-4-yl)ethenylphenyl-4 oxamate] | 30 mg/kg
25 | CCOC(=O)C(=O)Nc1ccc(C=Cc2cc(N)nc(C)n2)cc1 [Example 14, Ethyl 2-(2-methyl-6-aminopyrimidin-4-yl)ethenyl phenyl-4 oxamate] | 10 mg/kg
26 | CCOC(=O)C(=O)Nc1ccc(C=Cc2cc(C)ncn2)cc1 [Example 15, Ethyl 2-(6-methylpyrimidin-4-yl)ethenylphenyl-4 oxamate] | 1.1 mg/kg
27 | CCOC(=O)C(=O)Nc1ccc(C=Cc2ccnc(NC(=O)C(=O)OCC)n2)cc1 [Example 3, Ethyl 2-(2-ethoxyoxalylaminopyrimidin-4-yl)-ethenylphenyl-4 oxamate] | 10 mg/kg
28 | CCOC(=O)C(=O)Nc1ccc(C=Cc2cccnn2)cc1 [Example 18, Ethyl 2-(3-pyridazinyl)ethenylphenyl-4 oxamate] | 1 mg/kg
29 | Cc1nc(C=Cc2ccc(NC(=O)C(=O)O)cc2)cc(NC(=O)C(=O)O)n1 [Example 25, 2-(2-Methyl-6-carboxycarbonylaminopyrimidin-4-yl)-ethenylphenyl-4 oxamic acid hydrate diethanolamine salt] | 4 mg/kg
30 | CCOC(=O)C(=O)Nc1cccc(C=Cc2cnccn2)c1 [Example 22, Ethyl 2-(2-pyrazinyl)ethenylphenyl-3 oxamate] | 4 mg/kg
31 | CCOC(=O)C(=O)Nc1cccc(C=Cc2cc(NC(=O)C(=O)OCC)nc(C)n2)c1 [Example 26, Ethyl 2-(2-methyl-6-ethoxyoxalyl-aminopyrimidin-4-yl)-ethenylphenyl-3 oxamate hemihydrate] | < 10 mg/kg
32 | O=C(O)C(=O)Nc1cccc(C=Cc2ccncn2)c1 [Example 5, 2-(4-Pyrimidinyl)ethenylphenyl-3 oxamic acid ethanolamine salt] | 12.3 mg/kg
33 | CCOC(=O)C(=O)Nc1ccc(C=Cc2ccncn2)c(NC(=O)C(=O)OCC)c1 [Example 12, Diethyl 2-(4-pyrimidinyl)ethenylphenyl-2,4-dioxamate] | 2 mg/kg
34 | CCOC(=O)C(=O)Nc1ccc(C=Cc2ccncn2)cc1 [Example 1, Ethyl 2-(4-pyrimidinyl)ethenylphenyl-4 oxamate] | 1.4 mg/kg
35 | CCOC(=O)C(=O)Nc1ccc(C=Cc2cnccn2)cc1 [Example 20, Ethyl 2-(2-pyrazinyl)ethenylphenyl-4 oxamate] | 4.6 mg/kg
36 | CCOC(=O)C(=O)Nc1ccc(C=Cc2cc(NC(=O)C(=O)OCC)nc(C)n2)cc1 [Example 24, Ethyl 2-(2-methyl-6-ethoxyoxalylaminopyrimidin-4-yl)-ethenylphenyl-4 oxamate] | 0.3 mg/kg
37 | CCOC(=O)C(=O)Nc1ccc(C=Cc2ccncn2)c(O)c1 [Example 8, Ethyl 2-(4-pyrimidinyl)ethenyl-2-hydroxyphenyl-4 oxamate] | 4.5 mg/kg

Same assay, conditions: p.o.; 30 minutes before ovalbumin challenge; estimated from dose response curves

Row | Compound | ED50 (dose reducing the size of the blued area by 50%)
38 | O=C(O)c1cc(=O)c2c(OCC(O)COc3cccc4oc(C(=O)O)cc(=O)c34)cccc2o1 [Cromoglycate] | Inactive
39 | Ethyl 2-(4-pyrimidinyl)ethenyl-6-chlorophenyl-3 oxamate [Example 9] | 2 mg/kg, p.o.

System: not given
Assay: not given
Details: given orally; cited from earlier work

Row | Compound | antiallergic activity when given orally
40 | O=C(O)c1cc(=O)c2c(OCC(O)COc3cccc4oc(C(=O)O)cc(=O)c34)cccc2o1 [Cromoglycate] | not active

Same assay, conditions: inhalation as a solid; cited from earlier work

Row | Compound | bronchodilator when given by inhalation as a solid
41 | O=C(O)c1cc(=O)c2c(OCC(O)COc3cccc4oc(C(=O)O)cc(=O)c34)cccc2o1 [Cromoglycate] | effective
